According to ChEMBL document CHEMBL1201862, “PubChem BioAssay data set” (2004):
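Exposure lasted 48 hours, with cells grown in 96-well plates and compounds tested at five concentrations. GI50: concentration for 50% inhibition of growth.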 The source made the active and inactive calls. Rule as the data show it: active = GI50 up to about 1.1 µM and inactive = higher.

Key:
Experiment in all cases: inhibition of tumour cell growth, NCI panel, 48 h
[1] = test system: SW-620
[2] = test system: 786-0
[3] = test system: HCT-116
[4] = test system: LOX IMVI
[5] = test system: NCI-H226
[6] = test system: A498
[7] = test system: MCF7
[8] = test system: SR
[9] = test system: HCT-15
[10] = test system: OVCAR-3
[11] = test system: SK-MEL-28
[12] = test system: HCC 2998
[13] = test system: OVCAR-8
[14] = test system: M14
[15] = test system: RXF 393
[16] = test system: HT-29
[17] = test system: SN12C
[18] = test system: TK-10

Structure (SMILES) | GI50 [1] | GI50 [2] | GI50 [3] | GI50 [4] | GI50 [5] | GI50 [6] | GI50 [7] | GI50 [8] | GI50 [9] | GI50 [10] | GI50 [11] | GI50 [12] | GI50 [13] | GI50 [14] | GI50 [15] | GI50 [16] | GI50 [17] | GI50 [18]
CCOc1ccc(C2c3[nH]c4ccccc4c3CCN2C(=O)c2cccs2)cc1 (centres undefined) | 21.1 µM (inactive) | 9.18 µM (inactive) | 4.8 µM (inactive) | 6.52 µM (inactive) | 3.06 µM (inactive) | 7.4 µM (inactive) | 7.6 µM (inactive) | 2.62 µM (inactive) | 1.74 µM | 9.89 µM (inactive) | > 100 µM (inactive) | 2.08 µM (inactive) | 36.4 µM (inactive) | 37.7 µM (inactive) | 7.18 µM (inactive) | 5.98 µM (inactive) | > 100 µM (inactive) | > 100 µM (inactive)
Cc1ccc(C2SCC(=O)N2c2ccc(-n3c(-c4ccccc4)nc4ccccc4c3=O)cc2)cc1 (centres undefined) | 34.6 µM (inactive) | 18.7 µM (inactive) | 7.82 µM (inactive) | 9.98 µM (inactive) | 18.5 µM (inactive) | 26.1 µM (inactive) | 22.6 µM (inactive) | 7.89 µM (inactive) | 6.65 µM | 13.2 µM (inactive) | 21 µM (inactive) | 17.5 µM (inactive) | 16.2 µM (inactive) | 23.3 µM (inactive) | 22.8 µM (inactive) | 17.2 µM (inactive) | 37.8 µM (inactive) | 50.9 µM (inactive)
C[n+]1cc2cc(O)c(O)cc2c2ccc3cc(O)c(O)cc3c21.c1ccncc1 | 3.51 µM (inactive) | 2.03 µM (inactive) | 1.4 µM (inactive) | 2.61 µM (inactive) | 4.86 µM (inactive) | 2.51 µM (inactive) | 2.09 µM (inactive) | 2.09 µM (inactive) | 2.47 µM | 2.37 µM (inactive) | 4.66 µM (inactive) | 3.92 µM (inactive) | 3.1 µM (inactive) | 2.18 µM (inactive) | 2.07 µM (inactive) | 3.3 µM (inactive) | 2.96 µM (inactive) | 4.01 µM (inactive)
CC(=O)O[C@@H]1[C@H](OC2CCCCC2(c2ccccc2)c2ccccc2)O[N+]([O-])=CC12CCCCC2 (some centres undefined) | 16 µM (inactive) | 13.4 µM (inactive) | 17.6 µM (inactive) | 22 µM (inactive) | 14.1 µM (inactive) | 16.3 µM (inactive) | 18.2 µM (inactive) | 32 µM (inactive) | 16 µM | 14.9 µM (inactive) | 13.8 µM (inactive) | 17.1 µM (inactive) | 25.5 µM (inactive) | 18.7 µM (inactive) | 17.8 µM (inactive) | 18.6 µM (inactive) | 19.6 µM (inactive) | 16.7 µM (inactive)
CC(C)(C)c1ccc(-c2nnc(SCc3ccc(Cl)cc3)n2-c2cccc(C(F)(F)F)c2)cc1 | 15.9 µM (inactive) | 13.9 µM (inactive) | 4.71 µM (inactive) | 31.3 µM (inactive) | 19.7 µM (inactive) | 31.1 µM (inactive) | 5.65 µM (inactive) | 5.82 µM (inactive) | 8.73 µM | 1.87 µM (inactive) | > 78.9 µM (inactive) | 11.2 µM (inactive) | 15.6 µM (inactive) | 15 µM (inactive) | 8.91 µM (inactive) | 5.47 µM (inactive) | 4.24 µM (inactive) | 39.4 µM (inactive)
Nc1nnc2oc3ccc4ccccc4c3cc1-2 | 36.1 µM (inactive) | 34 µM (inactive) | 34.4 µM (inactive) | 23.5 µM (inactive) | 21.5 µM (inactive) | 24.6 µM (inactive) | 28 µM (inactive) | 23.1 µM (inactive) | 28 µM | 34.8 µM (inactive) | 39.9 µM (inactive) | 20.3 µM (inactive) | 32.4 µM (inactive) | 37.4 µM (inactive) | 28 µM (inactive) | 38.2 µM (inactive) | 22.9 µM (inactive) | 42 µM (inactive)
CCOC(=O)C1=C(C)NC(=S)NC1c1cccc(O)c1 (centres undefined) [MONASTROL] | 44.3 µM (inactive) | 57.9 µM (inactive) | 34.9 µM (inactive) | 72.8 µM (inactive) | 55 µM (inactive) | 37.1 µM (inactive) | 30 µM (inactive) | 31.5 µM (inactive) | 39.4 µM | 50.9 µM (inactive) | 81.5 µM (inactive) | 40 µM (inactive) | 57.7 µM (inactive) | 23.5 µM (inactive) | 25.5 µM (inactive) | > 86.3 µM (inactive) | 35.5 µM (inactive) | > 100 µM (inactive)
Cc1ccc([N+](=O)[O-])cc1NC1=NCCO1 | > 100 µM (inactive) | > 100 µM (inactive) | > 100 µM (inactive) | > 100 µM (inactive) | > 100 µM (inactive) | > 100 µM (inactive) | > 100 µM (inactive) | 45.8 µM (inactive) | > 100 µM | > 100 µM (inactive) | > 100 µM (inactive) | > 100 µM (inactive) | > 100 µM (inactive) | > 100 µM (inactive) | > 100 µM (inactive) | > 100 µM (inactive) | > 100 µM (inactive) | > 100 µM (inactive)
